Results published in patent US20160279187A1, “CALPAIN INHIBITORS FOR IBD AND COLORECTAL CANCER TREATMENT” (UNIVERSITY OF HAWAII, priority 2013, published 2016).
Where a SMILES comes first, the peptide text is derived from it. The star is where a group is joined. Cbz = O=C(OCc1ccccc1)*; CH2F = FC*

Columns and labels:
[1] = test system: calpain activity in the colon tissue; assay: DSS dose-response, calpain activity in colon tissue; assay type: in vivo, mice; conditions: 2% DSS 4 days
Description: Bone marrow derived macrophages (BMDM) were prepared as previously described by methods known to those skilled in the art. On day 5 of culture, 2×10^6 BMDM were seeded in 6-well plates and the following day were primed for 18 h with TNFα (20 ng/mL), followed by 1 h stimulation with E. faecalis (1 μg/mL; ATCC). Stimulation with E. faecalis was conducted in the presence of the zLLY-CH2F calpain-2 inhibitor (20 μg/mL) or DMSO as a control. Media was removed from treated BMDM, centrifuged at 300×g for 5 min and supernatent analyzed using the Cytometric Bead Array Mouse Inflammation Kit (BD Biosciences, San Jose, Calif.). Cytokine data were analyzed using Flowjo software (Ashland, Oreg.) and GraphPad Prism version 4.0 (GraphPad, La Jolla, Calif.). Cell pellets were lysed and analyzed for IκB and NFκB by Western blot as previously described (Miyazaki, T. et al. Journal of Atherosclerosis and Thrombosis 20, 228-237, 2013). […] Each day 4 wells were quantified using Celltiter MTS reagent (Promega) and the resulting signal was used to generate a proliferation curve. Calpain activity was measured using a Calpain activity assay kit (BioVision, Inc., Milpitas, Calif.) as previously described. Colons were harvested on day 4 and calpain activity measured. […]

m-calpain = target: T1, m-calpain (Homo sapiens, UniProt P17655); assay: irreversible inhibition of m-calpain, k2 rate constant; assay type: biochemical; conditions: m-calpain / cathespin L, 28,900/680,000
T1 sequence (P17655 1-700): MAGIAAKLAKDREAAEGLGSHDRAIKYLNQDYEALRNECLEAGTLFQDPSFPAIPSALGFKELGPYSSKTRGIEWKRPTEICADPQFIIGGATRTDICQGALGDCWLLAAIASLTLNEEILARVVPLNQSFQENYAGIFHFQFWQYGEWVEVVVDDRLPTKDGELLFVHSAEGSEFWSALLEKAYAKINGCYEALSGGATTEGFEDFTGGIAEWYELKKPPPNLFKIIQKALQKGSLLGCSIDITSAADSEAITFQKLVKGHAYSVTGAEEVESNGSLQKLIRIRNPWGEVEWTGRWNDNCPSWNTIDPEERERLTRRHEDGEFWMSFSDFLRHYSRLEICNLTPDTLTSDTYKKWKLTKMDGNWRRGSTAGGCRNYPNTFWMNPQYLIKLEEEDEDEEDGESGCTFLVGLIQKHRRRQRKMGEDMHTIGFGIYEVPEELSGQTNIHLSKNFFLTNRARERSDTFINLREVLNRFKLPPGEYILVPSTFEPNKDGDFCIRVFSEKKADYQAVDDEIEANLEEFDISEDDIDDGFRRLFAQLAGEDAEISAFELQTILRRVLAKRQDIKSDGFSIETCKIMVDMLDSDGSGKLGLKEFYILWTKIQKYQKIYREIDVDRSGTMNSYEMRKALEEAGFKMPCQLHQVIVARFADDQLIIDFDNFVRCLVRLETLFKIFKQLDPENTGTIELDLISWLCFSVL
T1 sequence (P04632 1-268 partner): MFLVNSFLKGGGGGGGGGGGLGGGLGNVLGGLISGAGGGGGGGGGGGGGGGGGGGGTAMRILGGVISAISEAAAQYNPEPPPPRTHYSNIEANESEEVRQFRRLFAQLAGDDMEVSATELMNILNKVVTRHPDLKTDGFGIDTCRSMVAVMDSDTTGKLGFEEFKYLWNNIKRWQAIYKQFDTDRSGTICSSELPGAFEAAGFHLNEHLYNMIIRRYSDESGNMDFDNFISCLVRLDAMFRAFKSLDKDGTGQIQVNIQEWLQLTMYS
Description: In some aspects, the m-calpain selective inhibitor can be an irreversible inhibitor of m-calpain. The inhibition is made […] by the nucleophilic attack of the active cysteine in m-calpain to the electrophilic moeity of the m-calpain selective inhibitor to form a covalent bond (Moldoveanu, T.; Campbell, R. L.; Cuerrier, D.; Davies, P. L. J. Mol. Biol., 343, 1313-1326, 2004; Carragher, N. O., Curr. Pharm. Des., 12, 615-638, 2006). […] However, ZZ-LLY-CH2F can inhibit the off-target protein cathespin L with a rate constant k2 of 680,000 M^−1s^−1 (Li, Q.; Hanzlik, R. P.; Weaver, R. F.; Schoenbrunn, E., Biochemistry, 45:701-708, 2006). Thus, the ratio of inhibition rates k2 of the on-target m-calpain to an off-target protein can be around 28,900/680,000, or about 0.041. The ratio of inhibition rates k2 of the on-target m-calpain to an off-target protein can be greater than about 0.5, or greater than 0.1, or greater than 0.05, or greater than 0.01.

With CC(C)C[C@H](NC(=O)OCc1ccccc1)C(=O)N[C@@H](CC(C)C)C(=O)N[C@@H](Cc1ccc(O)cc1)C(=O)CF [zLLY-CH2F, Z-LLY-CH2F] (Cbz-Leu-Leu-Tyr-CH2F) the “total calpain activity reduced by” value ([1]; daily i.p. injection, 0.75 mg/kg) was 50%, the “dose at which the maximum amount of calpain activity inhibition was achieved” value ([1]; i.p., 0-1.25 mg/kg tested) was 0.75 mg/kg and the “ratio of inhibition rates k2 of on-target m-calpain to off-target protein” value (m-calpain) was “about 0.041”.
